# According to patent US10906880B2, “Kind of isothiazole oxime ether-containing strobilurin derivatives and its preparation methods and application” (priority 2016, dated 2021):
# Like-named read-outs stand apart in the source and are kept apart here.
# Columns and labels:
# [1] = test system: Cercospora arachidicola; assay: Fungicide activity, mycelial growth inhibition on PDA plate; type: cell-based; conditions: for inhibition at 50 µg/mL: Mycosphaerella arachidis, read-out: Fungicidal activity inhibition, CA
# [2] = test system: Botrytis cinerea; assay: as above; type: cell-based; conditions: for inhibition at 50 µg/mL: Botrytis cinerea, read-out: Fungicidal activity inhibition, BC
# [3] = test system: Pellicularia sasakii; assay: as above; type: cell-based; conditions: for inhibition at 50 µg/mL: 50 μg/mL, P. sasakii, read-out: Fungicidal activity inhibition, PS
# [4] = test system: Gibberella zeae; assay: microbe, parasite or virus in culture; type: cell-based; conditions: for Fungicidal activity inhibition, GZ: 50 μg/mL, G. zeae; for inhibition at 50 µg/mL: Fusarium graminearum, read-out: Fungicidal activity inhibition, GZ, 50 μg/mL, G. zeae
# [5] = test system: Phytophthora infestans (Mont) de Bary; assay: microbe, parasite or virus in culture; type: cell-based; conditions: for Fungicidal activity inhibition, PI: 50 μg/mL, P. infestans (Mont.) de Bary; for inhibition at 50 µg/mL: Phytophthora infestans, read-out: Fungicidal activity inhibition, PI, 50 μg/mL, P. infestans (Mont.) de Bary
# [6] = test system: Physalospora piricola; assay: Fungicide activity, mycelial growth inhibition on PDA plate; type: cell-based; conditions: for inhibition at 50 µg/mL: 50 μg/mL, P. piricola, read-out: Fungicidal activity inhibition, PP
# [7] = test system: Alternaria solani; assay: as above; type: cell-based; conditions: for inhibition at 50 µg/mL: Alternaria solani, read-out: Fungicidal activity inhibition, AS
# [8] = test system: Sclerotinia sclerotiorum; assay: as above; type: cell-based; conditions: for inhibition at 50 µg/mL: Sclerotinia sclerotiorum, read-out: Fungicidal activity inhibition, SS
# [9] = test system: Rhizoctonia cerealis; assay: as above; type: cell-based; conditions: for inhibition at 50 µg/mL: Ceratobasidium cereale, read-out: Fungicidal activity inhibition, RC
# [10] = test system: TMV; assay: Anti-TMV activity on tobacco, curative mode; type: in vivo, tobacco mosaic virus; conditions: Tobacco mosaic virus, 100 μg/mL, tobacco; read-out: Anti-TMV activity inhibition, Curative effect
# [11] = test system: TMV; assay: Anti-TMV activity on tobacco, protection mode; type: in vivo, tobacco mosaic virus; conditions: Tobacco mosaic virus, 100 μg/mL, read-out: Anti-TMV activity inhibition, Protection effect
# [12] = test system: TMV; assay: Anti-TMV activity on tobacco, induction mode (systemic acquired resistance); type: in vivo, tobacco mosaic virus; conditions: Tobacco mosaic virus, 100 μg/mL, read-out: Anti-TMV activity inhibition, Induction effect
# [13] = test system: TMV; assay: Anti-TMV activity on tobacco, inactivation mode; type: in vivo, tobacco mosaic virus; conditions: Tobacco mosaic virus, 100 μg/mL, read-out: Anti-TMV activity inhibition, Inactivation effect
SMILES,"Fungicidal activity inhibition, GZ [4]","Fungicidal activity inhibition, PI [5]",inhibition at 100 µg/mL [10],"inhibition at 50 µg/mL ([1]; 50 μg/mL, C. arachidicola)",inhibition at 50 µg/mL [1],"inhibition at 50 µg/mL ([2]; 50 μg/mL, B. cinerea)",inhibition at 50 µg/mL [3],inhibition at 50 µg/mL [6],"inhibition at 50 µg/mL ([7]; 50 μg/mL, A. solani)",inhibition at 50 µg/mL [7],"inhibition at 50 µg/mL ([8]; 50 μg/mL, S. sclerotiorum)",inhibition at 100 µg/mL [11],"inhibition at 50 µg/mL ([9]; 50 μg/mL, R. cerealis)",inhibition at 50 µg/mL [9],melting point,inhibition at 100 µg/mL [12],inhibition at 50 µg/mL [5],inhibition at 50 µg/mL [8],inhibition at 100 µg/mL [13],inhibition at 50 µg/mL [2],other results
"CO/C=C(/C(=O)OC)c1ccccc1Oc1cc(Oc2ccccc2C#N)ncn1 [Azoxystrobin, reference compound]",71.43%,46.88%,–,–,–,–,–,–,–,–,–,–,–,–,–,–,–,–,–,–,"Fungicidal activity inhibition, CA [1]: 55.56%; Fungicidal activity inhibition, BC [2]: 91.18%; Fungicidal activity inhibition, PS [3]: 80.77%; Fungicidal activity inhibition, PP [6]: 100%; Fungicidal activity inhibition, AS [7]: 75.00%; Fungicidal activity inhibition, SS [8]: 88.10%; Fungicidal activity inhibition, RC [9]: 84.06%"
CO/N=C(/C(=O)OC)c1ccccc1CO/N=C(\C)c1snc(Cl)c1Cl [CL04-15A],–,–,1.52 ± 0.62%,50%,> 30%,100%,76.9%,53%,47.1%,> 30%,100%,> 40%,85.5%,> 50%,73 to 75 °C,–,–,–,–,–,inhibition at 50 µg/mL [4]: > 30%
CO/N=C(/C(=O)OC)c1ccccc1CO/N=C(C)/C=C/c1snc(Cl)c1Cl [CL04-17],–,–,> 30%,50%,> 30%,100%,58.8%,47.8%,35.7%,> 30%,86.7%,29.3 ± 1.31%,81.5%,> 50%,105 to 107 °C,> 30%,> 40%,> 40%,> 30%,–,–
C#CCNC(=O)/C(=N/OC)c1ccccc1CO/N=C(\C)c1snc(Cl)c1Cl [CL04-22B],100%,–,1.52 ± 0.62%,35.7%,> 30%,51.9%,73.3%,49.1%,28.6%,–,100%,> 40%,86.9%,> 50%,120 to 122 °C,–,–,–,> 30%,> 45%,–
CNC(=O)/C(=N/OC)c1ccccc1CO/N=C(\C)c1snc(Cl)c1Cl [CL04-22D],100%,100%,32.8 ± 3.36%,87.5%,–,100%,89.2%,80.8%,47.5%,> 30%,100%,> 40%,100%,–,79 to 81 °C,–,–,–,4.44 ± 0.85%,–,–
CO/N=C(/C(=O)NC(C)(C)CSC)c1ccccc1CO/N=C(\C)c1snc(Cl)c1Cl [CL04-22E],–,–,20.2 ± 5.58%,45.8%,> 30%,62.5%,21.2%,42.9%,27.3%,–,29.4%,22.7 ± 2.05%,76%,> 50%,–,12.7 ± 6.05%,28.6%,–,> 30%,> 45%,–
CO/N=C(/C(=O)N[C@@H](C)CSC)c1ccccc1CO/N=C(\C)c1snc(Cl)c1Cl [CL04-22F],–,–,1.52 ± 0.62%,12.5%,–,45.5%,15.2%,32.8%,16.4%,–,52.9%,23.8 ± 3.42%,76%,> 50%,35 to 37 °C,–,17.1%,> 40%,0%,> 45%,inhibition at 50 µg/mL [4]: > 30%
CO/N=C(/C(=O)NC1CC1)c1ccccc1CO/N=C(\N)c1snc(Cl)c1Cl [CL04-25B],–,–,20.5 ± 1.84%,28%,–,36.8%,18.9%,22.8%,21.3%,–,73.3%,19.6 ± 3.36%,85.4%,> 50%,–,18.6 ± 3.76%,33.3%,> 40%,0%,–,–
CNC(=O)/C(=N/OC)c1ccccc1CO/N=C(\N)c1snc(Cl)c1Cl [CL04-25C],100%,100%,14.7 ± 4.84%,44%,> 30%,57.9%,83.8%,40.4%,34.4%,> 30%,66.7%,> 40%,100%,–,122 to 124 °C,–,–,> 40%,0%,> 45%,–
CO/N=C(/C(=O)NC1CC1)c1ccccc1CO/N=C(C)/C=C/c1snc(Cl)c1Cl [CL04-32C],–,100%,31.6 ± 3.91%,60%,> 30%,57.9%,67.6%,71.9%,47.5%,> 30%,73.3%,19 ± 0.72%,70.7%,> 50%,95 to 97 °C,16 ± 7.71%,–,> 40%,> 30%,> 45%,–
CNC(=O)/C(=N/OC)c1ccccc1CO/N=C(C)/C=C/c1snc(Cl)c1Cl [CL04-32D],100%,100%,1.52 ± 0.62%,84%,–,84.2%,89.2%,64.9%,54.1%,> 30%,73.3%,39.1 ± 2.73%,85.4%,> 50%,137 to 139 °C,> 30%,–,> 40%,–,> 45%,–
"CO/C=C(/C(=O)OC)c1ccccc1CO/N=C(C)/C=C/c1ccc(Cl)cc1 [Enestroburin, reference compound]",21.54%,32.97%,–,–,–,–,–,–,–,–,–,–,–,–,–,–,–,–,–,–,"Fungicidal activity inhibition, CA [1]: 55.22%; Fungicidal activity inhibition, BC [2]: 48.57%; Fungicidal activity inhibition, PS [3]: 57.50%; Fungicidal activity inhibition, PP [6]: 59.09%; Fungicidal activity inhibition, AS [7]: 50.00%; Fungicidal activity inhibition, SS [8]: 44.00%; Fungicidal activity inhibition, RC [9]: 73.97%"
